In brackets after ≈: the same amount, converted by molar mass.
Key:
[1] = tested on: Pseudomonas aeruginosa CCM 3955; set-up: method as in PMID 26084645; settings: previously published positional isomer; cited from earlier work
[2] = tested on: Mycobacterium smegmatis DSM 43465; experiment: Antimycobacterial microdilution broth panel MIC (resazurin); assay type: cell-based; settings: for MIC: Mycolicibacterium smegmatis
[3] = tested on: Ataxia Telangiectasia and Rad3 Related (ATR) protein kinase; set-up: method as in doi:10.1007/s00044-013-0665-6; settings: cited from earlier work
[4] = Lipophilicity by reverse phase HPLC (log k); settings: RP-HPLC C18, MeOH 70% / H2O 30%, 30 °C
Method: The mobile phase consisted of MeOH (HPLC grade, 70%) and H2O (HPLC-Milli-Q Grade, 30%). The flow rate was 1.0 mL/min, samples were injected in a volume of 20 µL, and the column temperature was 30 °C. Detection and monitoring wavelength were 210 nm and 270 nm, respectively. Retention times (Rt) were measured in minutes. The dead time of the system (Dt) was determined as the retention time of the KI methanolic solution. Capacity factors k for individual compounds were calculated according to the formula k = (Rt – Dt)/Dt. Capacity factor k was converted to log scale and (log k) and used as a measure of lipophilicity.

[5] = tested on: Mycobacterium tuberculosis H37Rv; experiment: Antimycobacterial microdilution broth MIC (Alamar Blue); assay type: cell-based
HepG2 cell line = experiment: In vitro cytotoxicity, CellTiter 96 Aqueous One
[6] = In vitro cytotoxicity, CellTiter 96 Aqueous One; settings: human
[7] = Solubility in the cytotoxicity testing medium; settings: cytotoxicity assay medium; highest tested concentration 50 µM
[8] = tested on: M. kansasii CNCTC My 235/80; experiment: Antimycobacterial microdilution broth MIC (Alamar Blue); assay type: cell-based, Mycobacterium kansasii
[9] = tested on: Mycobacterium aurum DSM 43999; experiment: Antimycobacterial microdilution broth panel MIC (resazurin); assay type: cell-based; settings: Mycolicibacterium aurum, DSM43999
[10] = tested on: M. avium ssp. avium CNCTC My 80/72; experiment: Antimycobacterial microdilution broth MIC (Alamar Blue); assay type: cell-based, Mycobacterium avium
[11] = tested on: Lichtheimia corymbifera CCM 8077; experiment: Antifungal microdilution broth MIC; settings: CCM8077, 48 h, read-out: MIC Lichtheimia corymbifera (standards)
C. tropicalis CCM 8264 = experiment: Antifungal microdilution broth MIC; settings: Candida tropicalis, CCM8264, 48 h, read-out: MIC C. tropicalis (standards)
C. krusei CCM 8271 = experiment: Antifungal microdilution broth MIC; settings: Pichia kudriavzevii, CCM8271, 48 h, read-out: MIC C. krusei (standards)
[12] = tested on: Aspergillus flavus CCM 8363; experiment: Antifungal microdilution broth MIC; settings: CCM8363, 48 h, read-out: MIC Aspergillus flavus (standards)
[13] = tested on: Trichophyton interdigitale CCM 8377; experiment: Antifungal microdilution broth MIC; settings: Trichophyton interdigitale, CCM8377, 72 h, read-out: MIC Trichophyton interdigitale (standards)
[14] = tested on: Aspergillus fumigatus ATCC 204305; experiment: Antifungal microdilution broth MIC; settings: ATCC204305, 48 h, read-out: MIC Aspergillus fumigatus (standards)
C. parapsilosis CCM 8260 = experiment: Antifungal microdilution broth MIC; settings: Lodderomyces parapsilosis, CCM8260, 48 h, read-out: MIC C. parapsilosis (standards)
[15] = tested on: Candida albicans CCM 8320; experiment: Antifungal microdilution broth MIC; settings: CCM8320, 48 h, read-out: MIC Candida albicans (standards)
[16] = Mycobacterium tuberculosis, H37RV, M. tuberculosis H37Rv, value in parentheses
[17] = Mycobacterium tuberculosis, H37RV, pH 6.6, M. tuberculosis H37Rv, Middlebrook 7H9 pH 6.6

With `Nc1cnc(C(=O)Nc2ccc(C(F)(F)F)cc2)cn1` [5-amino-N-(4-(trifluoromethyl)phenyl)pyrazine-2-carboxamide] as the compound, how does the “MIC P. aeruginosa” value [1] read?
Its value is 250 µM (≈ 70.6 µg/mL).

Which results are given for `Nc1nccnc1C(=O)Nc1ccccc1` [Compound 13, 3-Amino-N-phenylpyrazine-2-carboxamide]?
MIC ([2]; DSM43465): > 500 µg/mL; MIC ([2]; DSM43465, value in parentheses): > 2330 µM; inhibitory effects on ATR protein kinase [3]: inhibitory effects; log k [4]: 0.189; MIC [5, 16]: > 467 µM; MIC [5, 17]: > 100 µg/mL

Which “cytotoxicity against HepG2” value (HepG2 cell line) does the source give for `COc1ccc(NC(=O)c2nccnc2N)c(OC)c1` [Compound 17, 3-Amino-N-(2,4-dimethoxyphenyl)pyrazine-2-carboxamide] here?
The value was “nontoxic”.

And the IC50 at 24 h [6]?
Its IC50 at 24 h is over 50 µM.

And the MIC ([2]; DSM43465)?
The MIC was over 500 µg/mL.

And the MIC ([2]; DSM43465, value in parentheses)?
Its MIC is over 1820 µM.

And the “solubility in the testing medium” value [7]?
The value was “decreased solubility”.

What about the log k [4] of the same compound?
Its log k is 0.37.

What about the MIC ([5]; M. tuberculosis H37Rv, value in parentheses) of the same compound?
The MIC was 45.6 µM.

And the MIC [5, 16]?
The MIC was 46 µM.

What about the MIC [5, 17] of the same compound?
The MIC was 12.5 µg/mL.

For `NNC(=O)c1ccncc1` [INH, isoniazid, reference compound], which “MIC M. kansasii” value [8] is on record?
Its value is 3.13 to 12.5 µg/mL.

And the MIC [9]?
Its MIC is 1.95 to 3.91 µg/mL (≈ 14.2 to 28.5 µM).

What about the “MIC M. smegmatis” value [2] of the same compound?
Its value is 7.81 to 15.62 µg/mL.

And the MIC ([2]; DSM43465)?
The MIC was 7.81 to 15.6 µg/mL.

What about the MIC [5, 17] of the same compound?
The MIC was 0.1 to 0.2 µg/mL.

And the “MIC M. avium” value [10]?
The value was 6.25 to 12.5 µg/mL.

With `C[C@@H](c1ncncc1F)[C@](O)(Cn1cncn1)c1ccc(F)cc1F` [voriconazole] as the compound, how does the MIC [11] read?
Its MIC is over 16 µg/mL.

And the MIC (C. tropicalis CCM 8264)?
Its MIC is over 16 µg/mL.

And the MIC (C. krusei CCM 8271)?
The MIC was 0.5 µg/mL (≈ 1.43 µM).

And the MIC [12]?
Its MIC is over 16 µg/mL.

And the MIC [13]?
Its MIC is over 16 µg/mL.

And the MIC [14]?
Its MIC is 1 µg/mL (≈ 2.86 µM).

What about the MIC (C. parapsilosis CCM 8260) of the same compound?
The MIC was 8 µg/mL (≈ 22.9 µM).

What about the MIC [15] of the same compound?
The MIC was over 16 µg/mL.

Reference: paper PMC6479349, “Derivatives of 3-Aminopyrazine-2-carboxamides: Synthesis, Antimicrobial Evaluation, and in Vitro Cytotoxicity” (Molecules, 2019)
